# Assay results reported in patent EP0506565A1, “Use of 4,9,11-trienic steroids in compositions for turkeys” (ROUSSEL-UCLAF, priority 1991, dated 1992).
# Columns and labels:
# [1] = Biological test: trenbolone acetate given orally in the feed, weight gain and feed conversion index; format: in vivo, dinde femelle; set-up: GPM = Gain de poids cumulé: unit not given here
# Source text: L'essai a été effectué sur des dindes femelles âgées de 10 semaines.
# Les animaux sont répartis en 2 groupes : • un groupe témoin de 37 animaux, • un groupe de 37 animaux recevant de l'acétate de trenbolone dans leur nourriture.
# Les dindes reçoivent une quantité rationnée de nourriture renfermant l'acétate de trenbolone puis sont nourries ad libitum.
# On calcule le poids moyen des dindes par pesée individuelle chaque semaine. On calcule le gain de poids moyen et l'indice de consommation c'est-à-dire (le poids total de nourriture que l'animal a reçu)/(gain de poids total) [formula]
# Les résultats sont résumés dans le tableau ci-dessus, ainsi que dans les courbes jointes en annexe. • Courbe 1 : évolution pondérale des dindes femelles de 9 à 19 semaines. • Courbe 2 : évolution de la différence entre les indices de consommation cumulés témoins-traités. • Courbe 3 : évolution de la différence entre les gains de poids moyens des animaux traités par rapport aux animaux témoins.
# [2] = administré par voie orale chez divers animaux notamment les bovins; cited from earlier work
# [3] = Observation of locomotor behaviour of treated turkeys; format: in vivo, dinde; settings: oral administration
# [4] = Course of plasma transaminase levels in orally treated turkeys; format: in vivo, dinde; settings: oral administration, compared with controls
# [5] = Plasma residues of TBA in orally treated turkeys; format: in vivo, dinde; settings: à 10, 12, 14, 16 et 18 semaines; oral administration
# [6] = 11ème semaine, 0,7 mg/Jour/dinde per os
# [7] = 12ème semaine, 0,7 mg/Jour/dinde per os
# [8] = 13ème semaine, 0,7 mg/Jour/dinde per os
# [9] = 14ème semaine, 0,7 mg/Jour/dinde per os
# [10] = 15ème semaine, 0,7 mg/Jour/dinde per os
# [11] = 16ème semaine, 0,7 mg/Jour/dinde per os
# [12] = 17ème semaine, 1,4 mg /jour/dinde per os
# [13] = 18ème semaine, 1,4 mg /jour/dinde per os
# [14] = 19éme semaine, 1,4 mg /jour/dinde per os
smiles,measurement,setting,value
CC(=O)O[C@H]1CC[C@H]2[C@@H]3CCC4=CC(=O)CCC4=C3C=C[C@]12C [acétate de trenbolone],% variation = % de l'augmentation de GPM des traités par rapport aux témoins,[1]; [6],12%
same,GPM = Gain de poids cumulé,[1]; [6],"1606,1"
same,I.C. = indice de consommation,[1]; [6],"2,05"
same,PM = poids moyen,[1]; [6],"4967,6 grammes"
same,% variation = % de l'augmentation de GPM des traités par rapport aux témoins,[1]; [7],18%
same,GPM = Gain de poids cumulé,[1]; [7],"2303,7"
same,I.C. = indice de consommation,[1]; [7],"2,05"
same,PM = poids moyen,[1]; [7],"5665,2 grammes"
same,% variation = % de l'augmentation de GPM des traités par rapport aux témoins,[1]; [8],12%
same,GPM = Gain de poids cumulé,[1]; [8],"2907,2"
same,I.C. = indice de consommation,[1]; [8],"2,54"
same,PM = poids moyen,[1]; [8],"6268,7 grammes"
same,% variation = % de l'augmentation de GPM des traités par rapport aux témoins,[1]; [9],10%
same,GPM = Gain de poids cumulé,[1]; [9],"3839,4"
same,I.C. = indice de consommation,[1]; [9],"2,66"
same,PM = poids moyen,[1]; [9],"7200,9 grammes"
same,% variation = % de l'augmentation de GPM des traités par rapport aux témoins,[1]; [10],7%
same,GPM = Gain de poids cumulé,[1]; [10],"4463,6"
same,I.C. = indice de consommation,[1]; [10],"2,66"
same,PM = poids moyen,[1]; [10],"7825,1 grammes"
same,% variation = % de l'augmentation de GPM des traités par rapport aux témoins,[1]; [11],8%
same,GPM = Gain de poids cumulé,[1]; [11],5258
same,I.C. = indice de consommation,[1]; [11],"3,1"
same,PM = poids moyen,[1]; [11],"8619,6 grammes"
same,% variation = % de l'augmentation de GPM des traités par rapport aux témoins,[1]; [12],9%
same,GPM = Gain de poids cumulé,[1]; [12],"6008,1"
same,I.C. = indice de consommation,[1]; [12],"3,33"
same,PM = poids moyen,[1]; [12],"9369,7 grammes"
same,% variation = % de l'augmentation de GPM des traités par rapport aux témoins,[1]; [13],11%
same,GPM = Gain de poids cumulé,[1]; [13],"6651,2"
same,I.C. = indice de consommation,[1]; [13],"3,45"
same,PM = poids moyen,[1]; [13],"10012,8 grammes"
same,% variation = % de l'augmentation de GPM des traités par rapport aux témoins,[1]; [14],11%
same,GPM = Gain de poids cumulé,[1]; [14],"7197,8"
same,I.C. = indice de consommation,[1]; [14],"3,59"
same,PM = poids moyen,[1]; [14],"10559,4 grammes"
same,activité,[2],relativement faible
same,comportement locomoteur,[3],aucune anomalie
same,évolution du taux des transaminases plasmatiques (GOT et GPT),[4],n'est pas modifiée par rapport aux témoins
same,résidus plasmatiques de TBA,[5],inférieurs à la limite de dosage
